Test results reported in patent publication US9102648B1, “Bioavailable diacylhydrazine ligands for modulating the expression of exogenous genes via an ecdysone receptor complex” (Intrexon Corporation, priority 2003, dated 2015).
Where two headings read alike, the source gives them in different places.

Tests used:
[1] = molecular target: T1, Bombyx mori EcR (VP16 fusion, CVBE switch construct) (Bombyx mori, UniProt P49881); experiment: Z3 Assay (HEK-293 cells with CVBE and 6XEcRE LacZ, β-galactosidase reporter); details: for fold induction at 3.3 µM: HEK293, read-out: Fold Induction, Z3 Assay, 3.3 uM; for fold induction at 33 µM: HEK293, read-out: Fold Induction, Z3 Assay, 33 uM; for Z3 assay Rel Max FI: maximum fold induction at any concentration relative to that of GS-E ligand; for Fold Induction, Z3 Assay, 3.3 uM: 3.3 uM ligand; for Fold Induction, Z3 Assay, 3.3 uM / Fold Induction, Z3 Assay, 33 uM: ligand treated / DMSO treated cells; for Fold Induction, Z3 Assay, 33 uM: 33 uM ligand
T1 sequence (P49881 86-606): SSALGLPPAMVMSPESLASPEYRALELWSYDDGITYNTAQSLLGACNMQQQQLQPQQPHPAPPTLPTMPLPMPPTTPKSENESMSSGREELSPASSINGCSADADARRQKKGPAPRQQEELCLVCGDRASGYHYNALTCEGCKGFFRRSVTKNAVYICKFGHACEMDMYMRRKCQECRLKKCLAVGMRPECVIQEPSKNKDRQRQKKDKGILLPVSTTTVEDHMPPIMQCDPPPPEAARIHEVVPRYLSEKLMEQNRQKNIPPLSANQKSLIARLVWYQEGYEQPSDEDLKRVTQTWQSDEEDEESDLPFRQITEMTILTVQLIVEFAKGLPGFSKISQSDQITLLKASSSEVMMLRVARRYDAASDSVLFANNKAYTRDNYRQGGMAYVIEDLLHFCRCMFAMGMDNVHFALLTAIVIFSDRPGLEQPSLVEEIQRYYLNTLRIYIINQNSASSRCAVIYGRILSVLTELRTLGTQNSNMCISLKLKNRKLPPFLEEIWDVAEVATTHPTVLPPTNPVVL
T1 sequence (P19793 1-462 partner): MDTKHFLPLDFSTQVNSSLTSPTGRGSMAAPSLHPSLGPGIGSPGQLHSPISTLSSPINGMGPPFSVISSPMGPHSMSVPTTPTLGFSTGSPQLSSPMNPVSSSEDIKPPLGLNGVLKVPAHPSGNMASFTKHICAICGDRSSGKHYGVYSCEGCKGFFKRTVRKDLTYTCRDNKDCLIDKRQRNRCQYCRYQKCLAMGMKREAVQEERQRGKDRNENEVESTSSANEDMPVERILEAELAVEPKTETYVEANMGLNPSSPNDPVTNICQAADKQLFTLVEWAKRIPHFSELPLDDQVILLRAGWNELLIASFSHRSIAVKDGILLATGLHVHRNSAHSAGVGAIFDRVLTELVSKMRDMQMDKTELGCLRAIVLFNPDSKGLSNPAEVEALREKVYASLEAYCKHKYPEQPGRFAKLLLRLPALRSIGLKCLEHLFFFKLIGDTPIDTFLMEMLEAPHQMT

[2] = molecular target: GAL4 DBD-CfEcR(DEF)/VP16AD-MmRXRE (Choristoneura fumiferana, UniProt O77240); experiment: 13B3 Assay (CHO stable cell line, luciferase reporter); details: for 13B3 assay Rel Max FI: maximum fold induction at any concentration relative to that of GS-E ligand, CHO 13B3 cells; for fold induction at 3.3 µM: read-out: Fold Induction, 13B3 Assay, 3.3 uM; for fold induction at 33 µM: read-out: Fold Induction, 13B3 Assay, 33 uM; for Fold Induction, 13B3 Assay, 3.3 uM: 3.3 uM ligand; for Fold Induction, 13B3 Assay, 3.3 uM / Fold Induction, 13B3 Assay, 33 uM: RLU ligand treated / RLU DMSO treated cells; for Fold Induction, 13B3 Assay, 33 uM: 33 uM ligand
Method in brief: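 CHO 13B3 clone stably expressing GAL4 DBD–CfEcR(DEF) and VP16AD–MmRXR(DE) with GAL4 RE–luciferase reporter; cells plated 24 h at 37 °C, then treated with ligands (DMSO stocks diluted 300-fold), 8 concentrations 33–0.01 μM.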

[3] = read-out: Z3 assay EC50, HEK-293 Z3 cells, β-galactosidase reporter, average of two wells
[4] = read-out: 13B3 EC50, CHO 13B3 stable cell line, luciferase reporter, 48 h, average of two wells

Row | Compound | EC50 [1] [µM] | fold induction at 3.3 µM [1] | fold induction at 33 µM [1] | Z3 assay Rel Max FI ([1]; HEK-293 Z3 cells) | EC50 [2] [µM] | 13B3 assay Rel Max FI [2] | fold induction at 3.3 µM [2] | fold induction at 33 µM [2] | Fold Induction, Z3 Assay, 3.3 uM ([1]; average of two wells) | Fold Induction, Z3 Assay, 33 uM ([1]; average of two wells) | EC50 [1, 3] [µM] | Fold Induction, 13B3 Assay, 3.3 uM ([2]; average of two wells) | Fold Induction, 13B3 Assay, 33 uM ([2]; average of two wells) | EC50 [2, 4] [µM]
1 | CCc1c(C(=O)NN(C(=O)c2cc(C)cc(Cl)c2)C(C)(C)C)ccc2c1OCCO2 [RG-101494, N-(5-ethyl-1,4-benzodioxan-6-carbonyl)-N′-(tert-butyl)-N′-(3-chloro-5-methylbenzoyl)hydrazine] | 0.079 | 832 | 384 | 1.093 | 0.148 | 0.822 | 755 | 613 |  |  |  |  |  | 
2 | CCc1ccc(C(=O)NN(C(=O)c2cc(C)cc(C)c2)C(C)(C)C)c(F)c1 [RG-101523, 3,5-Dimethyl-benzoic acid N-tert-butyl-N′-(4-ethyl-2-fluoro-benzoyl)-hydrazide] | 0.242 | 704 | 596 |  | 2.37 | 0.772 | 831 | 718 |  |  |  |  |  | 
3 | CCc1ccc(C(=O)NN(C(=O)c2cc(C)cc(C)c2)C(C)(C)C)cc1 [RG-102125] | 0.174 |  |  |  | 0.479 |  |  |  |  |  |  |  |  | 
4 | CCc1c(OC)cccc1C(=O)NN(C(=O)c1cc(C)cc(C)c1)C(C)(C)C [RG-102240, N-(3-methoxy-2-ethylbenzoyl)-N′-(3,5-dimethylbenzoyl)-N′-tert-butylhydrazine] | 0.286 |  |  | 1 | 0.5 | 1 |  |  |  |  |  |  |  | 
5 | Cc1cc(C)cc(C(=O)N(NC(=O)c2ccc3c(c2C)OCCO3)C(C)(C)C)c1 [RG-102317, N-(5-methyl-1,4-benzodioxan-6-carbonyl)-N′-(tert-butyl)-N′-(3,5-dimethylbenzoyl)hydrazine] |  | 416 | 1500 |  | 0.345 |  | 2420 | 814 |  |  |  |  |  | 
6 | COc1cccc(C(=O)NN(C(=O)c2cc(C)cc(C)c2)C(C)(C)C)c1C [RG-102398] | 0.095 | 535 | 1970 | 1.027 | 0.627 | 0.838 | 8120 | 795 |  |  |  |  |  | 
7 | CCC(N(NC(=O)c1cccc(C)c1C)C(=O)c1cc(C)cc(C)c1)C(C)(C)C (stereo not shown) [RG-103309, 3,5-dimethyl-benzoic acid N′-(2,3-dimethyl-benzoyl)-N-(1-ethyl-2,2-dimethyl-propyl)-hydrazide] | 0.078 | 1160 | 591 | 0.950 | 0.146 | 1.486 | 924 | 95 |  |  |  |  |  | 
8 | COc1cc(C(=O)N(NC(=O)c2ccc3c(c2C)OCCO3)C(C)(C)C)cc(OC)c1O [RG-115009, 4-Hydroxy-3,5-dimethoxy-benzoic acid N-tert-butyl-N′-(5-methyl-2,3-dihydro-benzo[1,4]dioxine-6-carbonyl)-hydrazide] | 3.31 | 35 | 472 | 0.916 | 18.9 | 0.917 | 19 | 2550 |  |  |  |  |  | 
9 | CCOC(=O)C(C)(C)N(NC(=O)c1cccc(OC)c1CC)C(=O)c1cc(C)cc(C)c1 [RG-115025, 2-[N-(3,5-dimethyl-benzoyl)-N′-(2-ethyl-3-methoxy-benzoyl)-hydrazino]-2-methyl-propionic acid ethyl ester] | 0.347 | 269 | 489 | 0.385 | 39.3 | 0.186 | 8 | 1700 |  |  |  |  |  | 
10 | CCc1c(OC)cccc1C(=O)NN(C(=O)c1c(F)cccc1F)C(C)(C)C [RG-115033] |  |  |  | 0.575 |  | 0.643 |  |  | 24 | 388 | 16.2 | 386 | 12 | 1
11 | CCc1c(OC)cccc1C(=O)NN(C(=O)c1cc(C)cc(C)c1)C(C)(C)C(=O)O [RG-115044, 2-[N-(3,5-Dimethyl-benzoyl)-N′-(2-ethyl-3-methoxy-benzoyl)-hydrazino]-2-methyl-propionic acid] | > 50 | 1 | 7 | 1.08 | > 50 | 0.87 |  | 1 |  |  |  |  |  | 
12 | CCc1c(C(=O)NN(C(=O)c2ccccc2)C(C)(C)C)ccc2c1OCOC2 [RG-115046] |  |  |  |  |  |  |  |  |  | 754 | 3.55 |  | 1076 | 
13 | COc1cc(C(=O)N(NC(=O)c2ccc3c(c2C)CCCO3)C(C)(C)C)cc(OC)c1C [RG-115055] |  |  |  | 0.936 |  | 0.894 |  |  | 573 | 617 | 0.043 | 1356 | 1350 | 0.303
14 | CCc1c(C(=O)NN(C(=O)c2ccccc2OC)C(C)(C)C)ccc2c1OCOC2 [RG-115065] |  |  |  |  |  |  |  |  |  | 878 | 1.48 |  | 880 | 
15 | CCc1c(C(=O)NN(C(=O)c2ccc(Cl)cc2OC)C(C)(C)C)ccc2c1OCO2 [RG-115085] |  |  |  |  |  |  |  |  |  | 627 | 0.195 |  | 236 | 
16 | COc1cc(C(=O)N(NC(=O)c2ccc3c(c2C)OCCO3)C(C)(C)C#N)cc(OC)c1C [RG-115092, N-(5-methyl-1,4-benzodioxan-6-carbonyl)-N′-(2-cyano-2-propyl)-N′-(3,5-dimethoxy-4-methylbenzoyl)hydrazine] | 0.037 | 351 | 302 | 0.917 | 0.184 | 1.176 | 2320 | 2410 |  |  |  |  |  | 
17 | COc1ccccc1C(=O)N(NC(=O)c1ccc2c(c1C)CCCO2)C(C)(C)C [RG-115102] |  |  |  | 0.858 |  | 0.546 |  |  | 88 | 865 | 0.139 | 1425 | 109 | 0.93
18 | Cc1c(C(=O)NN(C(=O)c2ccc(F)cc2)C(C)(C)C)ccc2c1CCCO2 [RG-115118] |  |  |  | 0.969 |  | 0.530 |  |  | 90 | 1160 | 0.234 | 979 | 769 | 0.689
19 | CCc1c(C(=O)NN(C(=O)c2cc(OC)c(C)c(OC)c2)C(C)(C)C)ccc2c1OCCO2 [RG-115130] |  |  |  |  |  |  |  |  | 412 | 930 | 0.036 | 987 | 511 | 0.512
20 | CCc1c(OC)cccc1C(=O)NN(C(=O)c1cc(C)cc(C)c1)C(C)(C)CO [RG-115143] |  |  |  | 0.844 |  | 0.651 |  |  | 111 | 1045 | 7.41 | 1 | 2032 | > 50
21 | CCc1c(OC)cccc1C(=O)NN(C(=O)c1cc(C)ccc1[N+](=O)[O-])C(C)(C)C [RG-115162] |  |  |  | 0.988 |  | 0.630 |  |  | 334 | 772 | 0.069 | 755 | 320 | 0.811
